Values joined by “and” are separate entries in the source; they are usually repeats but may differ in a detail not shown here. Equal entries are not always repeated.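 Results reflect a 48-hour exposure of cells in 96-well plates to compound at five concentrations. GI50: concentration for 50% inhibition of growth. TGI denotes the concentration required for complete inhibition of growth.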
Key:
Assay in all cases: NCI tumour cell line growth inhibition, 48 h
CCRF-CEM leukemia = test system: CCRF-CEM leukemia
EKVX NSCLC = test system: EKVX NSCLC
HCT-116 colon = test system: HCT-116 colon
KM12 colon = test system: KM12 colon
KM20L2 colon = test system: KM20L2 colon
M19-MEL melanoma = test system: M19-MEL melanoma
RXF 393 renal = test system: RXF 393 renal
SF-268 CNS = test system: SF-268 CNS
SK-MEL-2 melanoma = test system: SK-MEL-2 melanoma
T-47D breast = test system: T-47D breast

Structure (SMILES) | TGI (CCRF-CEM leukemia) | TGI (EKVX NSCLC) | TGI (HCT-116 colon) | TGI (KM12 colon) | TGI (KM20L2 colon) | TGI (M19-MEL melanoma) | TGI (RXF 393 renal) | TGI (SF-268 CNS) | TGI (SK-MEL-2 melanoma) | TGI (T-47D breast) [µM] | GI50 (CCRF-CEM leukemia) | GI50 (EKVX NSCLC) [µM] | GI50 (HCT-116 colon) | GI50 (KM12 colon) | GI50 (RXF 393 renal) [µM] | GI50 (SF-268 CNS) | GI50 (KM20L2 colon) | GI50 (SK-MEL-2 melanoma) [µM] | GI50 (T-47D breast) [µM] | GI50 (M19-MEL melanoma)
O=[N+]([O-])c1ccc(C2=Nn3c(nnc3-c3ccc(Cl)cc3)SC2)o1 | 7.54 µM | 23.9 µM | 15.1 µM | 27.6 µM | 16.1 µM | 7.95 µM | 21.6 µM | 30.2 µM | 27.1 µM | 12.9 |  |  |  |  |  |  |  |  |  | 
CC1=CCCC2C1(C)CCC(C)C2(C)Cc1cc(O)ccc1O (stereo not drawn) | > 37.1 µM and 5.88 µM | 22 µM and 18.8 µM | 24.8 µM and 15.7 µM | 18.7 µM | 27.9 µM | 20.8 µM | 20.4 µM and 10.9 µM | 21.1 µM and 20.7 µM | 27.9 µM and 24 µM | 27.3 | 3.76 µM | 7.71 | 9.85 µM | 5.16 µM | 3.74 | 5.4 µM |  |  |  | 
O=C(NC(=O)c1ccccc1[N+](=O)[O-])Nc1ccc(Oc2ncc(Cl)cn2)c([N+](=O)[O-])c1 | > 100 µM | > 100 µM | > 100 µM | > 66.3 µM | 0.383 µM | > 100 µM |  | > 100 µM | > 100 µM | > 100 |  |  |  |  |  |  |  |  |  | 
COc1cc2c(c(OC)c1OC)-c1ccc(OC)c(=O)cc1[C@@H](NC(C)=O)CC2 |  | > 625 µM |  |  | 0.00625 µM and 0.036 µM and < 0.0625 µM | > 522 µM |  |  |  | > 100 |  | 16.7 | < 0.01 µM and 0.0625 µM |  |  |  | 0.00285 µM and 0.018 µM | 0.48 | > 100 | 
O=C1[C@@H]2C(c3ccccc3[N+](=O)[O-])=[N+](c3ccccc3)O[C@@H]2C(=O)N1c1ccc(Cc2ccc(N3C(=O)[C@H]4C(c5ccccc5[N+](=O)[O-])=[N+](c5ccccc5)O[C@H]4C3=O)cc2)cc1 | > 100 µM | > 100 µM | > 100 µM | > 100 µM | > 100 µM | > 100 µM | > 100 µM | > 100 µM | > 100 µM |  |  |  |  |  |  |  |  |  |  | 
NC1CCCCC1N.O=[Se]([O-])[O-].[Pt+4] (stereo not drawn) | 97.7 µM | > 100 µM | > 45.2 µM | > 100 µM | 26.9 µM | 15.5 µM | 57.1 µM | > 76.8 µM | 31.1 µM |  | 0.203 µM | > 35.2 | 0.236 µM | 2.51 µM | 7.33 | 0.549 µM | 0.233 µM | 6 |  | 0.412 µM
O=C1NC2C(=CC(O)C(O)C2O)c2cc3c(cc21)OCO3 (stereo not drawn) | 0.875 µM and 3.55 µM | 3.06 µM and 2.29 µM | 1.18 µM and 2.77 µM | 1.75 µM and 3.53 µM | 5.54 µM and 5.32 µM | 1.72 µM and 1.53 µM | 0.805 µM and 1.43 µM and 2.16 µM | 3.37 µM and 3.58 µM | 2.95 µM and 1.43 µM | 1.5 | 0.154 µM and 0.115 µM | 0.285 | 0.282 µM and 0.101 µM | 0.336 µM and 0.129 µM | 0.589 | 0.354 µM and 0.337 µM | 0.34 µM and 0.261 µM | 0.305 |  | 0.353 µM and 0.282 µM
Nc1nc(N)c(-c2ccccc2)c(C(=O)Nc2ccccc2)n1 | > 100 µM | > 100 µM | > 100 µM | > 100 µM | > 100 µM | > 100 µM | > 100 µM | > 100 µM | > 100 µM |  |  |  |  |  |  |  |  |  |  | 
O=C(NCc1cccnc1)C1COc2cc(-c3cc(=O)c4ccccc4o3)ccc2O1 (stereo not drawn) | > 100 µM | > 100 µM | > 100 µM | > 100 µM | > 100 µM | > 100 µM | > 61.2 µM | > 55.2 µM | > 68.7 µM |  |  |  |  |  |  |  |  |  |  | 
